Data reported in patent US20150366839A1, “Schisantherin A for the treatment of neurodegenerative diseases” (priority 2014, published 2015).

Columns and labels:
[1] = tested on: caspase-3; assay: Caspase-3 activity assay (EnzChek kit); format: cell-based, Human; conditions: 60 μM 12 h, then 2 mM MPP+ 36 h
Experimental: Caspase-3 activity was detected using the EnzChek® Caspase-3 Assay Kit according to the manufacturer's protocol. In brief, the reaction mixture (total volume 100 μL) contained 50 μL of cell lysate and 50 μL of caspase-3 substrate (Z-DEVD-R110 substrate; the final concentration is […]) in assay buffer, and the assay was carried out in a 96-well plate. To account for non-specific hydrolysis of substrate, the samples were incubated at room temperature for approximately 30 minutes and measured the fluorescence (excitation/emission˜496/520 nm).
The inventors performed Western blot to measure the expression of active-form of caspase-3 and caspase-7 in SH-SY5Y cells. Cells were pretreated with 60 μM SchiA for 12 h and then treated with 2 mM MPP for another 36 h. Cells were lysed and examined by western blot. […] Caspase-3 activity was expressed as units per mg protein. ###p<0.005 versus control group; *p<0.05, **p<0.01 and *** p<0.005 versus MPP+ group.

[2] = tested on: caspase-3; assay: MPP+-induced caspase-3 activation, Western blot; format: cell-based, Human; conditions: 60 μM 12 h, then 2 mM MPP+ 36 h
Experimental: (§1) After treatment, SH-SY5Y cells were washed three times with PBS and then lysis with RIPA lysis buffer containing 1% PMSF and 1% Protease Inhibitor Cocktail and incubated for 30 min on ice. Cell lysates were centrifuged at 12,500 g for 20 min at 4° C. The supernatant was separated and the amount of protein was determined using the BCA protein assay kit (Thermo Scientific Pierce, USA). Protein samples (30 μg) were separated by SDS-PAGE (10% (w/v)) polyacrylamide gel and then transferred to a polyvinylidene difluoride (PVDF) membrane (Bio-Rad, Hercules, Calif.). Subsequently, the membrane was blocked with 5% (v/v) non-fat milk in PBST (PBS containing 0.1% Tween 20) for 1 h at room temperature. The blots were incubated overnight at 4° C. with primary antibodies. After three washes with PBST, the membranes were incubated with horseradish peroxidase-conjugated secondary antibodies (1:2000) in PBST with 5% non-fat milk for 1 h at room temperature. […] Quantitative assessment of protein bands was done with Gel Doc™ XRS equipped with Quantity One software.
The inventors performed Western blot to measure the expression of active-form of caspase-3 and caspase-7 in SH-SY5Y cells. […] Caspase-3 activity was expressed as units per mg protein. ###p<0.005 versus control group; *p<0.05, **p<0.01 and *** p<0.005 versus MPP+ group.

[3] = target: P-gp (Homo sapiens, UniProt P08183); conditions: Pan, Lu et al. 2006; cited from earlier work
P-gp, sequence (P08183 whole entry): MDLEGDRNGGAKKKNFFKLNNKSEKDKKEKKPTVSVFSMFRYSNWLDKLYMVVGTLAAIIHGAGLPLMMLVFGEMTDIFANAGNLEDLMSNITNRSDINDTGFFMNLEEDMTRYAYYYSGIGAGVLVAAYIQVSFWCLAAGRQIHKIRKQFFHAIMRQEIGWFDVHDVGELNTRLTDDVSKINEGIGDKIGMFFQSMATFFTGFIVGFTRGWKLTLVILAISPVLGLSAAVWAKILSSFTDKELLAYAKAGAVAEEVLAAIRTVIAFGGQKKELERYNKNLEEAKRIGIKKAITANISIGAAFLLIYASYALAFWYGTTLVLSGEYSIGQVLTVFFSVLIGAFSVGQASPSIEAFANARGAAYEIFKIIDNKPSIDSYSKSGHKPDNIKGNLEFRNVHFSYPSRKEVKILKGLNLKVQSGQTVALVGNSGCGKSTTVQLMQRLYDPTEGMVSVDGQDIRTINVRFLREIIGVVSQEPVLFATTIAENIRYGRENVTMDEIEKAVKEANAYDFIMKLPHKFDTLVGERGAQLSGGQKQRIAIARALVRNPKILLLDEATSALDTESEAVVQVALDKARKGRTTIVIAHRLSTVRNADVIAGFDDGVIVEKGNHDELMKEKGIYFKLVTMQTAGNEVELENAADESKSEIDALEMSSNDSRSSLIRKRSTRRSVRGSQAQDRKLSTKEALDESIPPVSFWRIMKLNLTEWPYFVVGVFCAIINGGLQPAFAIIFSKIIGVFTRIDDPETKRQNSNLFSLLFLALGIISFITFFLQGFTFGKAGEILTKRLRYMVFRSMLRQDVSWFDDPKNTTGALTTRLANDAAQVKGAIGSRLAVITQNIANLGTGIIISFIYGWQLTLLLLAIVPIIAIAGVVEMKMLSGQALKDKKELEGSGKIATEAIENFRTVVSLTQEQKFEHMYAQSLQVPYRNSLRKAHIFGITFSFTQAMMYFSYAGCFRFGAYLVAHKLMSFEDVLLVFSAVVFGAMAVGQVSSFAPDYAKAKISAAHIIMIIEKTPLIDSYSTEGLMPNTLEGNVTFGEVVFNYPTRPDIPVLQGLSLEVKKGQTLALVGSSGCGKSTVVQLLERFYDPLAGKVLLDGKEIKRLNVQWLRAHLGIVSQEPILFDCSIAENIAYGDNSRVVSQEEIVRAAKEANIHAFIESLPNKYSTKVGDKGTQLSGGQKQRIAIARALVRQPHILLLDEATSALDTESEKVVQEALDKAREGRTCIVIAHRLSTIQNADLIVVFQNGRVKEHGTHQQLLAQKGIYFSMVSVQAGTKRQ

[4] = tested on: ERK1/2; assay: ERK phosphorylation after 6-OHDA, Western blot; format: cell-based, Human
Experimental: After treatment, SH-SY5Y cells were washed three times with PBS and then lysis with RIPA lysis buffer containing 1% PMSF and 1% Protease Inhibitor Cocktail and incubated for 30 min on ice. Cell lysates were centrifuged at 12,500 g for 20 min at 4° C. The supernatant was separated and the amount of protein was determined using the BCA protein assay kit (Thermo Scientific Pierce, USA). Protein samples (30 μg) were separated by SDS-PAGE (10% (w/v)) polyacrylamide gel and then transferred to a polyvinylidene difluoride (PVDF) membrane (Bio-Rad, Hercules, Calif.). Subsequently, the membrane was blocked with 5% (v/v) non-fat milk in PBST (PBS containing 0.1% Tween 20) for 1 h at room temperature. The blots were incubated overnight at 4° C. with primary antibodies. After three washes with PBST, the membranes were incubated with horseradish peroxidase-conjugated secondary antibodies (1:2000) in PBST with 5% non-fat milk for 1 h at room temperature. After repeated washes, proteins were visualized with an ECL advanced western blotting detection kit. Photographs of protein bands were taken by a Molecular Imager ChemiDoc XRS (Bio-Rad, Hercules, Calif.). Quantitative assessment of protein bands was done with Gel Doc™ XRS equipped with Quantity One software. […]

[5] = tested on: intracellular ROS in SH-SY5Y cells; assay: 6-OHDA-induced ROS accumulation (CM-H2DCFDA); format: cell-based, Human
Experimental: SH-SY5Y cells seeded at 96-well plates (1×10^4 cells/well) were incubated with 5 μM fluorescent probe CM-H2DCFDA at 37° C. for 20 min after treatment with SchiA or 6-OHDA. The fluorescence intensity was determined by multi-label counter at wavelengths of excitation at 493 nm and emission at 522 nm.
The generation of excess ROS by auto-oxidation of 6-OHDA, considered to be involved in 6-OHDA-induced cellular injury (Cohen and Heikkila 1974). Therefore, to examine whether SchiA prevented the production of ROS from 6-OHDA, the accumulation of ROS was measured by fluorescent probe CM-H2DCFDA in SH-SY5Y cells. The fluorescence intensity of CM-H2DCFDA was measured after SH-SY5Y cell were pretreated with different concentrations of SchiA for 12 h and then treated with or without 400 μM 6-OHDA for 4 h. The results of FIG. 3 are expressed as a percentage of that of the control group. ###P<0.005 versus control group; *p<0.05, **p<0.01 and *** p<0.005 versus 6-OHDA group.

[6] = tested on: iNOS; assay: iNOS expression, Western blot; format: cell-based, Human
Experimental: as §1, with “antibodies.” for “antibodies. After three washes with PBST, the membranes were incubated with horseradish peroxidase-conjugated secondary antibodies (1:2000) in PBST with 5% non-fat milk for 1 h at room temperature.”
Augmented NO production subsequent to iNOS induction appears to play an important role in the initial phase of 6-OHDA-induced neuro-damage models in vitro and in vivo (Singh, Das et al. 2005; Lin, Uang et al. 2007; Shih, Chen et al. 2011). […] Expression of the total iNOS proteins were determined by Western blot analysis. […] Results of FIGS. 4A-C are expressed as a percentage of relative fluorescent intensity (RFI) of the Control group. ###P<0.005 versus control group; *p<0.05, **p<0.01 and *** p<0.005 versus 6-OHDA group. […]

[7] = tested on: Bax and Bcl-2; assay: Bax and Bcl-2 expression in MPP+-treated cells, Western blot; format: cell-based, Human
Experimental: After treatment, SH-SY5Y cells were washed three times with PBS and then lysis with RIPA lysis buffer containing 1% PMSF and 1% Protease Inhibitor Cocktail and incubated for 30 min on ice. Cell lysates were centrifuged at 12,500 g for 20 min at 4° C. The supernatant was separated and the amount of protein was determined using the BCA protein assay kit (Thermo Scientific Pierce, USA). Protein samples (30 μg) were separated by SDS-PAGE (10% (w/v)) polyacrylamide gel and then transferred to a polyvinylidene difluoride (PVDF) membrane (Bio-Rad, Hercules, Calif.). Subsequently, the membrane was blocked with 5% (v/v) non-fat milk in PBST (PBS containing 0.1% Tween 20) for 1 h at room temperature. The blots were incubated overnight at 4° C. with primary antibodies. After three washes with PBST, the membranes were incubated with horseradish peroxidase-conjugated secondary antibodies (1:2000) in PBST with 5% non-fat milk for 1 h at room temperature. After repeated washes, proteins were visualized with an ECL advanced western blotting detection kit. Photographs of protein bands were taken by a Molecular Imager ChemiDoc XRS (Bio-Rad, Hercules, Calif.). Quantitative assessment of protein bands was done with Gel Doc™ XRS equipped with Quantity One software.
To investigate whether SchiA has any effect on the expression of Bax and Bcl-2 proteins in MPP^+-induced SH-SY5Y cells, the expression levels of Bax and Bcl-2 were determined by Western blot analysis. SH-SY5Y cells were pretreated with 60 μM SchiA for 12 h before incubating with 2 mM MPP for 36 h. The expression of Bax or Bcl-2 in cell lysates was determined by Western blot analysis. […] In this study, β-actin was shown as an internal control. In FIGS. 15A-B, the Bax/Bcl-2 ratio are expressed as a percentage of that of the control group. ###P<0.005 versus control group; ***P<0.005 versus MPP group.

[8] = 60 μM 12 h, then 2 mM MPP+ 36 h

SMILES: COc1cc2c(c(OC)c1OC)-c1c(cc3c(c1OC)OCO3)C[C@H](C)[C@](C)(O)[C@H]2OC(=O)c1ccccc1 [SchiA, Schisantherin A]
- MPP+-induced elevation of caspase-3 activity [1]: dramatically suppressed
- MPP+-induced caspase-3 activation (active form) [2]: significant decrease
- P-gp inhibition [3]: potent P-gp inhibitor
- 6-OHDA-induced reduction in ERK1/2 phosphorylation ([4]; 60 μM 12 h, then 400 μM 6-OHDA 4 h): prevented the reduction in ERK1/2 phosphorylation
- phosphorylated ERK1/2 level, compound alone ([4]; 60 μM, without 6-OHDA): did not change
- 6-OHDA-induced intracellular ROS level ([5]; 3, 6, 12, 25 and 50 μM 12 h, then 400 μM 6-OHDA 4 h): significantly reduced
- intracellular ROS levels, compound alone ([5]; without 6-OHDA): no obvious effect
- 6-OHDA-induced iNOS expression ([6]; 60 μM 12 h, then 400 μM 6-OHDA 2 h): reduced the expression of iNOS induced by 6-OHDA significantly
- iNOS expression, compound alone ([6]; 60 μM, without 6-OHDA): no obvious influence
- MPP+-induced down-regulation of Bcl-2 expression [7, 8]: could inhibit the down-regulation of Bcl-2 expression
- MPP+-induced increase of the Bax/Bcl-2 ratio [7, 8]: effectively prevented
- Bax protein expression ([7]; 60 μM, compared with control group): did not changed significantly
- Bcl-2 expression, compound alone ([7]; 60 μM, without MPP+): increase the expression of Bcl-2
